Laboratory results reported in patent publication US20260216232A1, “SEVUPARIN FOR THE TREATMENT OF CHRONIC KIDNEY DISEASE” (Modus Therapeutics AB, priority 2022, published 2026).
Like-named read-outs stand apart in the source and are kept apart here. Marks after values point to notes of the source that are not given here.

Experiments:
[1] = tested on: Kidney Disease and Anemia of Kidney Disease (KD) Mouse Model
Source text: (§1) All experimental procedures were approved by the Animal Care and Use Committee of University of Brescia. All animals were maintained on normal diet (“Chow” or Standard diet, 4RF21, obtained from Mucedola s.r.l) if not specified otherwise as part of the “Anemia of Chronic Kidney Disease (CKD) mouse model” experiment as described below.
(§2) Animals. The C57BL/6J male mice were purchased from Envigo RMS S.r.l.
(§3) Kidney damage, kidney disease and anemia were induced by an adenine high phosphorus diet denoted as “adenine rich diet” (ARD) (0.2% Adenine; 0.9% Phosphorus; 0.6% Calcium; 20% Casein; Cod. S1102-E750 (purchased from Charles River, Manufacturer: Ssniff Spezialdiäten GmbH).
(§4) ARD was fed to C57BL/6J male mice having reached an age of five-weeks. […] All animals were maintained on ARD or normal diet (Standard diet, 4RF21, Mucedola s.r.l), at timings and extents described in detail for each experiment below. Groups of mice were also kept under normal diet (Standard diet) as healthy control group, for each experiment. Mice had access to food and diet ad libitum.
(§5) Adenine rich diet (ARD) (0.2% Adenine; 0.9% Phosphorus; 0.6% Calcium; 20% (Ssniff Spezialdiäten GmbH), sevuparin 10 mg/kg (Opocrin S.p.A., Apotek Produktion & Laboratorier AB, subcutaneously administered, sc), erythropoietin (EPO, Darbepoietin alfa, Aranesp, AMGEN INC.) intraperitoneally adminstered, ip)
(§6) The hematological parameters hemoglobin (Hb) and hematocrit (Ht) were analyzed using the Hemo Vet Instrument (Infratech) by collecting a single drop of blood from the dorsal pedal vein. The animals weight were monitored weekly in the morning at the following time points of treatment: At start of treatment (P0); after one week of treatment (T1); after two weeks of treatment (T2); after three weeks of treatment (T3); after four weeks of treatment (T4); after five weeks of treatment (T5); after six weeks of treatment (T6); after seven weeks of treatment (T7); after eight weeks of treatment (T8); and after nine weeks of treatment (T9).
(§7) Reticulocyte hemoglobin content (Ret-He), serum hepcidin and serum creatinine (analysis performed by Izler Institute) were analyzed at the end of each experiment)
(§8) Mice were sacrificed at the indicated time points and blood and kidneys were collected for analysis at the end-point of each experiment.
(§9) At the end-point, mouse serum hepcidin was quantified using ELISA kit (Cod. SKU #HMC-001; Intrinsic LifeScience).
(§10) Serum creatinine and blood Reticulocytes-hemoglobin (Ret-He) were analyzed by IZLER Institute (Istituto Zooprofilattico Sperimentale della Lombardia e Dell′Emilia Romagna), using standard procedures.
ARD Pretreatment for 9 Weeks Followed by 3 Weeks Treatment with Either Control or Sevuparin
(§11) C57BL/6J male mice were exposed to ARD pretreatment for 9 weeks followed by 3 weeks of randomized allocation to treatments as defined below still with maintained ARD exposure. One group of mice was given normal diet (no ARD) for the entire experiment, as healthy control. • a) Treatment with control: mice treated with PBS s.c. every day for 3 weeks. • b) Treatment with sevuparin: mice treated with 10 mg/kg Sevuparin s.c. every day for 3 weeks.

mouse kidneys [2] = details: 3 weeks treatment, 20x magnification, compared to kidneys without sevuparin
Description: as §11

[3] = tested on: Kidney Disease and Anemia of Kidney Disease (KD) Mouse Model; test: Anemia of CKD mouse model (adenine rich diet), Example 2: blood and serum analysis, body weight; type: in vivo, C57BL/6J male mice
Source text: as §1, §2, §3, §4, §5, §6, §7, §8, §9, §10
ARD Pre-Treatment for 9 Weeks Followed by 2 Weeks Treatment with Either Control, Sevuparin, Erythropoietin (EPO) or a Combination of EPO and Sevuparin, Followed by 7 Weeks Recovery without ARD but with Maintained Treatments.
(§12) C57BL/6J male mice were exposed to ARD pretreatment for 9 weeks followed by 2 weeks of randomized allocation to treatments as defined below still with maintained ARD exposure, after which ARD was omitted but treatments were maintained during 7 weeks of recovery. One group of mice was given normal diet (no ARD) for the entire experiment, as healthy control. • a) Treatment with control: mice treated with PBS s.c. every day for 2+7 weeks. • b) Treatment with sevuparin: mice treated with 10 mg/kg Sevuparin s.c. every day for 2+7 weeks. • c) Treatment with […]: mice treated with 50 IU EPO i.p. twice a week for 2+7 weeks. • d) Treatment with EPO+sevuparin: mice treated with 50 IU EPO i.p. twice a week and 10 mg/kg Sevuparin s.c. every day for 2+7 weeks.
Hemoglobin (Hb), hematocrit (Ht), weigh (wt), serum-creatitine (S-crea), reticulocyte hemoglobin (Ret-He) content and serum-hepcidin (nM) was measured in the mice.

mouse kidneys [4] = test: Example 2: macroscopic and histological status of kidneys (H&E, Sirius Red); type: in vivo, C57BL/6J male mice
Description: as §12

[5] = tested on: Kidney Disease and Anemia of Kidney Disease (KD) Mouse Model; test: Anemia of CKD mouse model (adenine rich diet), Example 3: blood and serum analysis, body weight; type: in vivo, C57BL/6J male mice
Source text: as §1, §2, §3, §4, §5, §6, §7, §8, §9, §10
ARD Pretreatment for 5.5 Weeks Followed by 3 or 6 Weeks Treatment with Control, Sevuparin, Erythropoietin (EPO), or a Combination of EPO and Sevuparin
C57BL/6J male mice were exposed to ARD pretreatment for 5.5 weeks followed by either 3 or 6 weeks of randomized allocation to treatments as defined below still with maintained ARD exposure. One group of mice was given normal diet (no ARD) for the entire experiment, as healthy control. • a) Treatment control: mice treated with PBS s.c. every day for 3 and 6 weeks respectively. • b) Treatment with sevuparin: mice treated with 10 mg/kg Sevuparin s.c. every day for 3 and 6 weeks respectively. • c) Treatment with EPO: mice treated with 50 IU EPO i.p. twice a week for 3 weeks and mice treated with 50 IU EPO i.p. twice a week for 3 weeks followed by treatment with 25 IU EPO i.p. once a week for the subsequent 3 weeks. • d) Treatment with EPO+sevuparin: mice treated with 10 mg/kg sevuparin s.c. every day and 50 IU EPO i.p. twice a week for 3 weeks and mice treated with 10 mg/kg sevuparin s.c. every day and 50 IU EPO i.p. twice a week for the first 3 weeks followed by treatment with 10 mg/kg sevuparin s.c. every day and 25 IU EPO i.p. once a week for the subsequent 3 weeks.

factor IIa = details: definition of sevuparin; no test described; cited from earlier work
factor Xa = details: definition of sevuparin; no test described; cited from earlier work
[6] = 3 weeks treatment, compared to mice not treated with sevuparin
[7] = ARD 9 weeks, then sevuparin 10 mg/kg s.c. every day for 3 weeks with maintained ARD, mean
[8] = 2+7 weeks treatment, compared to mice without any treatment / other treatment groups
[9] = ARD 9 weeks, then 2 weeks treatment on ARD + 7 weeks without ARD, sevuparin 10 mg/kg s.c. every day, EPO 50 IU i.p. twice a week, mean
[10] = ARD 5.5 weeks then treatment with maintained ARD
[11] = ARD 5.5 weeks, then 3 or 6 weeks treatment with maintained ARD (time point not given), sevuparin 10 mg/kg s.c. every day, EPO 50 IU i.p. twice a week (25 IU once a week for subsequent 3 weeks), mean

sevuparin
Hematocrit levels, in words [1, 6]: increased
Hemoglobin blood levels, in words [1, 6]: increased
blood level of reticulocyte-hemoglobin (Ret-He), in words [1, 6]: increased
body weight, in words [1, 6]: gained body weight
serum creatinine level, in words [1, 6]: increased
serum level of hepcidin, in words [1, 6]: reduced
S-Hepcidin ([1]; ARD 9 weeks, then sevuparin 10 mg/kg s.c. every day for 3 weeks with maintained ARD, ELISA, mean): 36.83^(18) nM
Hb [1, 7]: 10.80^(3) g/dL
Ht [1, 7]: 31.67^(6) %
Ret-He [1, 7]: 14.33^(15) pg
S-Crea [1, 7]: 0.73^(12) mg/dL
Wt [1, 7]: 15.00^(9) g
effect on the micrographs of the mouse kidneys (FIG. 1G) (mouse kidneys [2]): positive effect
serum level of hepcidin, in words ([3]; 2+7 weeks treatment): markedly reduced
blood level of reticulocyte hemoglobin (Ret-HE), in words [3, 8]: increased
body weight (wt), in words [3, 8]: increased
hematocrit (Ht), in words [3, 8]: increased
serum level of creatinine (s-Crea), in words [3, 8]: reduced
Hb [3, 9]: 9.45^(3) g/dL
Ht [3, 9]: 27.75^(8) %
Ret-He [3, 9]: 15.78^(23) pg
S-Crea [3, 9]: 0.78^(18) mg/dL
S-Hepcidin [3, 9]: 22.32^(28) nM
Wt [3, 9]: 25.75^(13) g
kidney damage, H&E staining (FIG. 2B) (mouse kidneys [4]; 40x magnification, 11 weeks of adenine diet, compared to the untreated control): reduced the damage
collagen deposits (fibrosis), Sirius Red Staining (FIG. 2B) (mouse kidneys [4]; 40x magnification, compared to AD 11 weeks+PBS): reduction of the collagen deposits
physical status of the mouse kidneys, macroscopic photographs (FIG. 2A) (mouse kidneys [4]; compared to mouse kidneys that had not received the same therapy): substantially less cysts, more normal colour and a more homogenous appearance
blood level of hemoglobin (Hb), in words [5, 10]: did not increase
body weight (wt), in words [5, 10]: did not increase
hematocrit (Ht), in words [5, 10]: did not increase
serum level of creatinine (s-Crea), in words ([5]; ARD 5.5 weeks then treatment with maintained ARD, compared to mice without any treatment): reduced
Hb [5, 11]: 9.77^(3) g/dL
Ht [5, 11]: 28.67^(8) %
Ret-He [5, 11]: 14.45^(23)** pg
S-Crea [5, 11]: 0.82^(18) mg/dL
Wt [5, 11]: 17.60^(13) g
impact on the serum level of hepcidin (FIG. 3A) ([5]; at 3 weeks treatment): beneficial impact
beneficial impact on the serum level of hepcidin vs control (FIG. 3B) ([5]; at 6 weeks treatment): no longer present
antifactor 11a activity (factor IIa): up to 10 IU/mg
antifactor Xa activity (factor Xa): up to 10 IU/mg
